Read-outs that look alike come from different tables or passages of the source.

For one assay, the system named is Klebsiella pneumoniae. Kind of assay: Adjuvant broth microdilution (antibiotic MIC with SP-BIM at 50 μg/mL). In kind it is cell-based. The settings on record: Klebsiella pneumoniae; antibiotic alone; Table 7; read-out: MIC of antibiotic, No compound.
The test system of the next assay is MRSA. Described as above. In kind it is cell-based, Staphylococcus aureus. Conditions: Staphylococcus aureus, antibiotic alone, Table 4, read-out: MIC of antibiotic, No compound.
Assay [1] relates to Bacillus cereus ATCC 14579. In words: Broth microdilution MIC of SP-BIMs. In kind it is cell-based.
Assay [2] deals with Pseudomonas aeruginosa ATCC 27853. In words: Broth microdilution MIC of SP-BIMs. In kind it is cell-based.
The subject of assay [3] is Corynebacterium diphtheriae ATCC 27010. Kind of assay: Broth microdilution MIC of SP-BIMs. In kind it is cell-based.
Assay [4] has as its system Escherichia coli ATCC 35218. In words: Broth microdilution MIC of SP-BIMs. In kind it is cell-based.
Assay [5] concerns Staphylococcus aureus ATCC 12600. In words: Broth microdilution MIC of SP-BIMs. In kind it is cell-based.
In a further assay the test system is Streptococcus pneumoniae. In words: Adjuvant broth microdilution (antibiotic MIC with SP-BIM at 50 μg/mL). In kind it is cell-based. Conditions: Streptococcus pneumoniae, Streptococcus pneumonia, SP-BIM at 50 μg mL^−1.
Assay [6] has as its system Candida albicans ATCC 22972. Kind of assay: Broth microdilution MIC of SP-BIMs. In kind it is cell-based.
The subject of assay [7] is Streptococcus pyogenes ATCC 19615. Kind of assay: Broth microdilution MIC of SP-BIMs. In kind it is cell-based.
The subject of assay [8] is Klebsiella pneumoniae ATCC 49472. In words: Broth microdilution MIC of SP-BIMs. In kind it is cell-based.
In assay [9] the test system is Enterococcus faecium ATCC 19434. In words: Broth microdilution MIC of SP-BIMs. In kind it is cell-based.
Assay [10] deals with Salmonella typhimurium ATCC 14028. Kind of assay: Broth microdilution MIC of SP-BIMs. The settings on record: Salmonella enterica, read-out: MIC Salmonella tvpkimurium ATCC 14028. In kind it is cell-based. The text has this: Reference microorganisms used in this study included: Bacillus cereus (American Type Culture Collection (ATCC) No. 14579), Streptococcus pyogenes (ATCC No. 19615), Staphylococcus aureus (ATCC No. 12600), Enterococcus faecium (ATCC No. 19434), Corynebacterium diphtheriae (ATCC No. 27010), Escherichia coli (ATCC No. 35218), Salmonella typhimurium (ATCC No. 14028), Pseudomonas aeruginosa (ATCC No. 27853), Klebsiella pneumoniae (ATCC No. 49472), and Candida albicans (ATCC No. 22972).
Prior to each experiment, cultures were streaked onto clean BHI agar plates and incubated at 35° C. for 24 hours. Colonies of the respective cultures were selected and inoculated in phosphate buffer saline (pH 7.5) to a 0.5 McFarland turbidity standard (equivalent to 10^8 CFU mL^−1). The bacterial suspension was then diluted 1:100 in cation adjusted Mueller Hinton Broth (ca-MHB) (Oxoid Ltd, Basingstoke, Hampshire, England).
Stock solutions (50 mg mL^−1) of the SP-BIM test compounds were prepared in DMSO and stored at 4° C. Working preparations of each compound was made up to 1 mg/mL in sterile deionized water with a final DMSO concentration of 10%.
To assess the antibiotic properties of the library of SP-BIMs, the broth microdilution assay was performed in 96-well microplates according to the Clinical and Laboratory Standards Institute 2014 Guidelines (CLSI 2014). The broth microdilution assay was used to determine the minimum inhibitory concentration (MIC). […] Bacterial cells (˜10^6 CFU mL^−1) were inoculated into cation adjusted-Mueller Hinton broth containing the test compound in a twofold serial dilution ranging between 250 μg mL^−1 and 0.02 μg mL^−1. Plates were incubated at 35° C. for 18 hours after which 50 μL of 5% resazurin solution was added to each well. Resazurin is a blue dye which, upon reduction by living cells, turns to a pink resorufin product. Plates were shaken for 1 hour after the addition of the dye. The MIC was recorded as the well with the lowest concentration of test compound where no color change was observed.

The mark [11] stands for this setting: ATCC14579, SP-BIM alone, read-out: MIC Bacillus cereus ATCC 14579.
Where [12] appears, read: ATCC27853, SP-BIM alone, read-out: MIC Pseudomonas aeruginosa ATCC 27853.
Where [13] appears, read: ATCC27010, SP-BIM alone, read-out: MIC Corynebacterium diphtheriae ATCC 27010.
The mark [14] stands for this setting: ATCC35218, SP-BIM alone, read-out: MIC Escherichia coli ATCC 35218.
Setting [15] is: ATCC12600, SP-BIM alone, read-out: MIC Staphylococcus aureus ATCC 12600.
Setting [16] is: read-out: MIC of Kanamvcin with SP-BIM.
Where [17] appears, read: read-out: MIC of Vancomvcin with SP-BIM.
Where [18] appears, read: ATCC22972, SP-BIM alone, read-out: MIC Candida albicans ATCC 22972.
Setting [19] is: ATCC19615, SP-BIM alone, read-out: MIC Streptococcus pyogenes ATCC 19615.
Setting [20] is: ATCC49472, SP-BIM alone, read-out: MIC Klebisella pneumoniae ATCC 49472.
[21] abbreviates: ATCC19434, SP-BIM alone, read-out: MIC Enterococcus faecium ATCC 19434.

Regarding `C[C@@H](O)[C@H]1C(=O)N2C(C(=O)O)=C(SCCN=CN)C[C@H]12` [Imipenem, imipenem], the MIC was found to be 2 µg/mL in the assay on Klebsiella pneumoniae and 4 µg/mL in the assay with MRSA.
Turning to `O=[N+]([O-])c1cccc(C(c2c[nH]c3ccccc23)c2c[nH]c3ccccc23)c1` [SP-BIM 5, [bis(indol-3-yl)-3-nitrophenyl]methane], the minimal inhibitory concentration (MIC) in assay [1] (setting [11]) was more than 250 µg/mL; in [2] (setting [12]) it was 250 µg/mL; in assay [3] (setting [13]), more than 250 µg/mL; in [4] (setting [14]), more than 250 µg/mL; in assay [5] (setting [15]) it was more than 250 µg/mL; with Streptococcus pneumoniae (setting [16]), 125 µg/mL. Also, the minimum inhibitory concentration (MIC) in the assay on Streptococcus pneumoniae (setting [17]) was 1 µg/mL; in [6] (setting [18]), 250 µg/mL; in assay [7] (setting [19]), more than 250 µg/mL; in assay [8] (setting [20]) it was more than 250 µg/mL; in assay [9] (setting [21]), more than 250 µg/mL; in assay [10], 250 µg/mL.
As for `c1cc(C(c2c[nH]c3ccccc23)c2c[nH]c3ccccc23)cc(C(c2c[nH]c3ccccc23)c2c[nH]c3ccccc23)c1` [SP-BIM 7, 1,3-bis[bis(indoly-3-yl)methyl]benzene], the MIC is more than 250 µg/mL in [1] (setting [11]); 250 µg/mL in assay [2] (setting [12]); more than 250 µg/mL in [3] (setting [13]); more than 250 µg/mL in assay [4] (setting [14]); more than 250 µg/mL in assay [5] (setting [15]); 125 µg/mL in the assay on Streptococcus pneumoniae (setting [16]). The minimal inhibitory concentration (MIC) in the assay with Streptococcus pneumoniae (setting [17]) is 1 µg/mL; in assay [6] (setting [18]), 250 µg/mL; in [7] (setting [19]) it was more than 250 µg/mL; in [8] (setting [20]), more than 250 µg/mL; in assay [9] (setting [21]), more than 250 µg/mL; in [10] it was 250 µg/mL.
As to `O=[N+]([O-])c1ccc(C(c2c[nH]c3ccccc23)c2c[nH]c3ccccc23)cc1` [SP-BIM 8], the MIC in assay [1] (setting [11]) was more than 250 µg/mL; in assay [2] (setting [12]), 250 µg/mL; in assay [3] (setting [13]), more than 250 µg/mL; in assay [4] (setting [14]), more than 250 µg/mL; in assay [5] (setting [15]), more than 250 µg/mL; in the assay with Streptococcus pneumoniae (setting [16]) it was 125 µg/mL. Moreover, the MIC in the assay with Streptococcus pneumoniae (setting [17]) was 1 µg/mL; in [6] (setting [18]), 250 µg/mL; in [7] (setting [19]) it was more than 250 µg/mL; in [8] (setting [20]) it was more than 250 µg/mL; in assay [9] (setting [21]), more than 250 µg/mL; in assay [10], 250 µg/mL.
With `COc1ccccc1C(c1c[nH]c2ccccc12)c1c[nH]c2ccccc12` [SP-BIM 12, bis(indol-3-yl)-2-methoxyphenylmethane], the MIC is more than 250 µg/mL in assay [1] (setting [11]); 250 µg/mL in assay [2] (setting [12]); more than 250 µg/mL in [3] (setting [13]); more than 250 µg/mL in assay [4] (setting [14]); more than 250 µg/mL in [5] (setting [15]); 125 µg/mL in the assay with Streptococcus pneumoniae (setting [16]). The MIC in the assay with Streptococcus pneumoniae (setting [17]) was 1 µg/mL; in assay [6] (setting [18]), 250 µg/mL; in assay [7] (setting [19]), more than 250 µg/mL; in [8] (setting [20]), more than 250 µg/mL; in [9] (setting [21]), more than 250 µg/mL; in assay [10], 250 µg/mL.
In the case of `c1ccc2c(c1)cc(C(c1c[nH]c3ccccc13)c1c[nH]c3ccccc13)c1ccccc12` [SP-BIM 14, bis[indol-3-yl)-phenanthren-9-ylmethane], the MIC in [1] (ATCC14579, read-out: MIC Bacillus cereus ATCC 14579) is 125 µg/mL; in assay [2] (ATCC27853, read-out: MIC Pseudomonas aeruginosa ATCC 27853) it was 250 µg/mL; in assay [3] (ATCC27010, read-out: MIC Corynebacterium diphtheriae ATCC 27010), more than 250 µg/mL; in assay [4] (ATCC35218, read-out: MIC Escherichia coli ATCC 35218) it was more than 250 µg/mL; in [5] (ATCC12600, read-out: MIC Staphylococcus aureus ATCC 12600), more than 250 µg/mL; in the assay with Streptococcus pneumoniae (setting [16]) it was 125 µg/mL. In addition, the MIC was 1 µg/mL with Streptococcus pneumoniae (setting [17]); 250 µg/mL in assay [6] (ATCC22972, read-out: MIC Candida albicans ATCC 22972); 125 µg/mL in assay [7] (ATCC19615, read-out: MIC Streptococcus pyogenes ATCC 19615); more than 250 µg/mL in assay [8] (ATCC49472, read-out: MIC Klebisella pneumoniae ATCC 49472); 125 µg/mL in [9] (ATCC19434, read-out: MIC Enterococcus faecium ATCC 19434); 250 µg/mL in [10].
Take `Oc1cc(Br)ccc1[C+](c1c[nH]c2ccccc12)c1c[nH]c2ccccc12` [SP-BIM 17, 4-bromo-2-hydroxyphenylbis(indol-3-yl)methylium]: the MIC in assay [1] (setting [11]) is more than 250 µg/mL; in assay [2] (setting [12]), 250 µg/mL; in [3] (setting [13]) it was more than 250 µg/mL; in [4] (setting [14]), more than 250 µg/mL; in [5] (setting [15]), more than 250 µg/mL; in the assay with Streptococcus pneumoniae (setting [16]), 125 µg/mL. Besides, the minimal inhibitory concentration (MIC) with Streptococcus pneumoniae (setting [17]) is 1 µg/mL; in assay [6] (setting [18]), 250 µg/mL; in assay [7] (setting [19]) it was more than 250 µg/mL; in assay [8] (setting [20]) it was more than 250 µg/mL; in assay [9] (setting [21]) it was more than 250 µg/mL; in assay [10], 250 µg/mL.
With `COc1ccc2c(C(c3cccc(O)c3)c3c[nH]c4cc(OC)ccc34)c[nH]c2c1` [SP-BIM 19, bis(6-methoxyindoly-3-yl)-3-hydroxyphenylmethane], the MIC in [1] (setting [11]) is more than 250 µg/mL; in [2] (setting [12]), 250 µg/mL; in assay [3] (setting [13]), more than 250 µg/mL; in assay [4] (setting [14]), more than 250 µg/mL; in assay [5] (setting [15]), more than 250 µg/mL; with Streptococcus pneumoniae (setting [16]) it was 125 µg/mL. The minimal inhibitory concentration (MIC) was 1 µg/mL with Streptococcus pneumoniae (setting [17]); 250 µg/mL in assay [6] (setting [18]); more than 250 µg/mL in assay [7] (setting [19]); more than 250 µg/mL in [8] (setting [20]); more than 250 µg/mL in assay [9] (setting [21]); 250 µg/mL in [10].
Regarding `COc1ccc2c(C(c3ccc([N+](=O)[O-])cc3)c3c[nH]c4cc(OC)ccc34)c[nH]c2c1` [SP-BIM 20, bis(6-methoxyindol-3-yl)-4-nitrophenylmethane], the MIC in [1] (setting [11]) was more than 25 µg/mL; in [2] (setting [12]), 250 µg/mL; in [3] (setting [13]) it was more than 250 µg/mL; in assay [4] (setting [14]), more than 250 µg/mL; in assay [5] (setting [15]) it was more than 250 µg/mL; with Streptococcus pneumoniae (setting [16]), 125 µg/mL. Moreover, the MIC in the assay with Streptococcus pneumoniae (setting [17]) was 1 µg/mL; in assay [6] (setting [18]), 250 µg/mL; in assay [7] (setting [19]) it was more than 250 µg/mL; in assay [8] (setting [20]), more than 250 µg/mL; in [9] (setting [21]) it was more than 250 µg/mL; in assay [10], 250 µg/mL.

These data come from patent US12285407B2, “Bis-indolylmethane derivatives and uses thereof” (The University of The West Indies, priority 2018, dated 2025).
